Data taken from ChEMBL document CHEMBL1201862, “PubChem BioAssay data set” (2004).
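Method: 48-hour compound exposure of cells in 96-well plates, five concentrations, linear interpolation of endpoints. GI50: concentration for 50% inhibition of growth.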 The source made the active and inactive calls. No stated cut-off is given here; in the data, active = GI50 up to about 1.1 µM and inactive = higher.

Columns and labels:
Assay in all cases: inhibition of tumour cell growth, NCI panel, 48 h
COLO 205 = tested on: COLO 205
MCF7 = tested on: MCF7
HL-60 = tested on: HL-60
EKVX = tested on: EKVX
786-0 = tested on: 786-0
A498 = tested on: A498
DU-145 = tested on: DU-145
A549 = tested on: A549
MDA-MB-435 = tested on: MDA-MB-435
SK-MEL-28 = tested on: SK-MEL-28
OVCAR-8 = tested on: OVCAR-8
SF-268 = tested on: SF-268
SN12C = tested on: SN12C
SNB-19 = tested on: SNB-19
CAKI-1 = tested on: CAKI-1
K562 = tested on: K562
Malme-3M = tested on: Malme-3M
NCI-H460 = tested on: NCI-H460
CCRF-CEM = tested on: CCRF-CEM
SK-OV-3 = tested on: SK-OV-3

Measured: GI50

CCOC(=O)c1nc2cc(C(F)(F)F)ccc2nc1Nc1ccc(OC)cc1
inactive: COLO 205 47.4 µM | MCF7 > 100 µM | HL-60 > 100 µM | EKVX > 100 µM | 786-0 47.4 µM | A498 > 100 µM | DU-145 > 100 µM | A549 > 100 µM | MDA-MB-435 > 100 µM | SK-MEL-28 > 100 µM | OVCAR-8 > 100 µM | SF-268 > 100 µM | SN12C > 100 µM | SNB-19 54.3 µM | CAKI-1 > 100 µM

N#C[BH2-][n+]1cn(C2CC(O)C(COP(=O)(O)OC3CC(n4c[n+]([BH2-]C#N)c5c(=O)[nH]c(N)nc54)OC3CO)O2)c2nc(N)[nH]c(=O)c21 (stereo unspecified)
inactive: COLO 205 > 100 µM | MCF7 > 100 µM | HL-60 > 100 µM | EKVX > 100 µM | 786-0 > 100 µM | A498 > 100 µM | DU-145 > 100 µM | A549 > 100 µM | K562 10 µM | MDA-MB-435 > 100 µM | Malme-3M > 100 µM | NCI-H460 > 100 µM | SK-MEL-28 > 100 µM | OVCAR-8 > 100 µM | CCRF-CEM > 100 µM | SF-268 > 100 µM | SN12C > 100 µM | SNB-19 > 100 µM | CAKI-1 > 100 µM

O=C1Cc2cn[nH]c2-c2ccccc2N1
inactive: COLO 205 29 µM | MCF7 39 µM | HL-60 29.8 µM | EKVX 34.7 µM | SK-OV-3 > 85.7 µM | 786-0 41.8 µM | A498 > 94.4 µM | DU-145 40.7 µM | A549 38 µM | K562 21.9 µM | MDA-MB-435 22.3 µM | Malme-3M > 46.7 µM | NCI-H460 24.2 µM | SK-MEL-28 63.1 µM | OVCAR-8 35 µM | CCRF-CEM 20.7 µM | SF-268 41.1 µM | SN12C > 44.4 µM | SNB-19 > 68.2 µM

COC(=NC(C)C)NC(C)C
inactive: COLO 205 > 100 µM | MCF7 > 100 µM | HL-60 > 100 µM | EKVX > 100 µM | SK-OV-3 > 100 µM | 786-0 > 100 µM | A498 > 100 µM | DU-145 > 100 µM | A549 > 100 µM | K562 > 100 µM | MDA-MB-435 > 100 µM | NCI-H460 > 100 µM | SK-MEL-28 > 100 µM | OVCAR-8 > 100 µM | CCRF-CEM > 100 µM | SF-268 > 100 µM | SN12C > 100 µM | SNB-19 > 100 µM
